This assay has as its system HSV-infected cells, viral DNA qPCR Ct reduction. Briefly: HSV genome copy increase, qPCR Ct shift, cell-based, HSV replication enhancer project, confirmation (AID 588784). The settings on record: at 10 µM; hits give high values.

Here are results for 1 compound from PubChem BioAssay AID588784 (Southern Research Specialized Biocontainment Screening …, 2011).

“And” between values parts separate entries of the source, which are not always exact repeats. Equal entries are not always repeated. The source made the active and inactive calls. The rule behind the calls is not given here.

Take `COc1cc(C(=O)OCCCN2CCCN(CCCOC(=O)c3cc(OC)c(OC)c(OC)c3)CC2)cc(OC)c1OC`: the Ct reduction is -0.309 (inactive) and -0.64 (inactive).
